Source: patent publication US20150306107A1, “SAA Derivative Compound Restores eNOS And Inhibits Oxidative Stress-Induced A Diseases In Hypoxia” (JANSFAT BIOTECHNOLOGY CO., LTD., priority 2014, published 2015)

Legend:
PDE5A = details: hypoxia 21 days; % of the normal level; hypoxia 43.8±12.6%
eNOS [1] = test: Western blotting of eNOS expression in isolated rat pulmonary artery ring, short-term (acute) hypoxia or normoxia; format: cell-based
Procedure: (§1) In our in vitro short-term experiment, isolated rat pulmonary artery was grown under normoxia (20% O2) or hypoxia (1% O2) at 37° C. for 24 hrs as was previously done (Wu BN, et al. Int J Immunopathol Pharmacol 24:925, 2011). The heart weight and body weight ratio (HW/BW) of the rats treated with one of SPAAX-1, SPAAX-1 RX complex, Sildenafil or Sildenafil RX complex each measured on the 21st hypoxic day. All animal care and the experimental protocols of this study were approved by the Animal Care and Use Committee of the Kaohsiung Medical University. Male Wistar rats (200-250 g), provided by the National Laboratory Animal Breeding and Research Center (Taipei, Taiwan), were housed under constant temperature and controlled illumination. Food and water were available ad libitum.
(§2) Whole right lung tissues of hypoxia-treated and untreated rats were isolated and cut into small strips and placed into an extraction buffer (Tris 10 mM, pH 7.0, NaCl 140 mM, PMSF 2 mM, DTT 5 mM, NP-40 0.5%, pepstatin A 0.05 mM and leupeptin 0.2 mM) for protein extraction, and then centrifuged at 12,500 g for 30 min. To measure the expression levels of the proteins, the total proteins were extracted and Western blotting analysis was performed as described previously (Bivalacqua T J, et al., 2013, TJ PLoSONE 8: e68028. doi:10.1371/journal. pone.0068028). Briefly, the protein extract was boiled to a ratio of 4:1 with a sample buffer (Tris 100 mM, pH 6.8, glycerol 20%, SDS 4% and bromophenol blue 0.2%). Electrophoresis was performed using 10% SDS-polyacrylamide gel (2 hr, 100 V, 40 mA, […] protein per lane). Separated proteins were transferred to PVDF membranes treated with 5% fat-free milk powder to block the nonspecific IgGs (90 min, 100 V) and incubated for one hour with a specific protein antibody. The blot was then incubated with anti-mouse or anti-goat IgG linked to alkaline phosphatase (1:1000) for 1 hr. Immunoreactive bands were visualized using horseradish peroxidase-conjugated secondary antibodies and subsequent electrochemiluminescence (ECL) detection (GE Healthcare Bio-Sciences Corp., Piscataway, N.J., U.S.A.). Mouse or rabbit monoclonal antibody of eNOS (Upstate, N.Y., U.S.A.), sGCα (Sigma-Adrich, CA, U.S.A., sGCβ (Santa Cruz, Calif., U.S.A.), PDE-5A (BD Tansduction, San Jose, Calif., U.S.A.), PKG (Calbiochem, San Diego, Calif., U.S.A.) ROCKII (Upstate, N.Y., U.S.A.), RhoA (Santa Cruze, Calif., U.S.A.) and the loading control protein β-actin (Sigma-Adrich, MO, U.S.A.) were used in our Western blot analysis.
(§3) The Western blotting analysis measurements were performed as per lung tissue.

[2] = tested on: reactive oxygen species (ROS) of lung tissues; details: long-term hypoxia
Procedure: In our in vivo hypoxic experiments, 10-week old male Wistar rats were equally divided into four groups: a normoxia group, a hypoxia group, a hypoxia+SPAAX-1 or SPAAX-1 RX complex group, and a hypoxia+Sildenafil or Sildenafil RX complex group. All the rats were maintained on a 12-h light/12-hr dark cycle at 25±1° C. and were provided with food and water ad libitum. The normoxia group was housed in standard normoxic conditions and the other three treated groups were continuously housed in a hypoxic chamber (10% O2) for 21 days, except for a 30-min interval each day when the chamber was cleaned (FIG. 2). During which, a normoxic gas mixture was prepared from compressed air.
Pulmonary ROS was measured using 2′-7′-dichloro-fluorescein (H2DCF-DA, Molecular Probe, USA). Briefly, 10 μl of lung tissue extract was diluted 100-fold with cold PBS and labelled with 5 μmol/L 2′-7′-dichlorofluorescein, and the mixture was incubated at 37° C. for 30 minutes and put in a centrifuge (1000 rpm) for 5 min. Fluorescence was measured at 485 nm excitation and 530 nm emission to determine the concentration of H2O2 (FLUOstar Galaxy, Germany).

ROCK II [3] = test: Western blotting of ROCK II expression in isolated rat pulmonary artery ring, short-term (acute) hypoxia or normoxia; format: cell-based
Procedure: as §1, §2, §3

sGCα1 [4] = test: Western blotting of sGCα1 expression in isolated pulmonary artery, short-term hypoxia; format: cell-based, rat
Procedure: as §1
Whole right lung tissues of hypoxia-treated and untreated rats were isolated and cut into small strips and placed into an extraction buffer (Tris 10 mM, pH 7.0, NaCl 140 mM, PMSF 2 mM, DTT 5 mM, NP-40 0.5%, pepstatin A 0.05 mM and leupeptin 0.2 mM) for protein extraction, and then centrifuged at 12,500 g for 30 min. To measure the expression levels of the proteins, the total proteins were extracted and Western blotting analysis was performed as described previously (Bivalacqua T J, et al., 2013, TJ PLoSONE 8: e68028. doi:10.1371/journal. pone.0068028). […]

PKG = test: Western blotting of PKG in lung tissue after long-term hypoxia; format: in vivo, rat; details: hypoxia 21 days
Procedure: as §2, with “Mouse or rabbit monoclonal antibody of eNOS (Upstate, N.Y., U.S.A.), sGCα (Sigma-Adrich, CA, U.S.A., sGCβ (Santa Cruz, Calif., U.S.A.), PDE-5A (BD Tansduction, San Jose, Calif., U.S.A.), PKG (Calbiochem, San Diego, Calif., U.S.A.) ROCKII (Upstate, N.Y., U.S.A.), RhoA (Santa Cruze, Calif., U.S.A.) and the loading control protein β-actin (Sigma-Adrich, MO, U.S.A.) were used in our Western blot analysis.” left out

VEGF = test: Western blotting of VEGF expression in isolated rat pulmonary artery ring, short-term (acute) hypoxia; format: cell-based; details: isolated pulmonary artery
Procedure: as §1, §2, §3

hypoxic rats [5] = test: Hemodynamics of rats with hypoxic PAH, chronic hypoxia 21 days; format: in vivo, rat; details: 5 mg/kg/day, p.o.
Text: Int J Immunopathol Pharmacol 24:925, 2011). The heart weight and body weight ratio (HW/BW) of the rats treated with one of […] complex, Sildenafil or Sildenafil RX complex each measured on the 21st hypoxic day. All animal care and the experimental protocols of this study were approved by the Animal Care and Use Committee of the Kaohsiung Medical University. Male Wistar rats (200-250 g), provided by the National Laboratory Animal Breeding and Research Center (Taipei, Taiwan), were housed under constant temperature and controlled illumination. Food and water were available ad libitum. Normoxic rats were housed in room temperature air at normal atmospheric pressure (760 mm Hg). […] After completion of the exposure, tissues were prepared as indicated for contraction measurements, Western blot analysis, RNA extraction, or morphological analysis. […] Their breathing was normal and their body temperature was maintained at 37° C. […] The animals were then sacrificed by the administration of an overdose of urethane.

hypoxic rats [6] = test: Right ventricular hypertrophy (RV/LV+S, right heart index) after long-term hypoxia; format: in vivo, rat
Procedure: (§4) The right lobes of the rat lungs and heart of six rats from each group were cut and soaked in formalin, dehydrated through graded alcohols, and embedded in paraffin wax. The lung tissue specimens fixed with formalin (4%) were embedded in paraffin for one hour at 4° C., cut into 4-μm-thick sections, and subjected to H&E staining before examination by light microscope. In our histopathological study, we measured the thickening of the medial wall of the small intrapulmonary arteries under an Eclipse TE2000-S (Nikon) microscope. In the heart tissues, the 4-μm-thick paraffin sections were cut from paraffin-embedded tissue blocks and de-paraffinized by immersion in xylene and rehydrated as previously described (Bivalacqua T J, et al., PLoSONE 8: e68028. doi:10.1371/journal. pone.0068028). The slices were then dyed with H&E. After gently rinsing with water, each slide was dehydrated through graded alcohols and finally soaked in xylene twice. The relative cardiac weight of right ventricle (RV)/[left ventricle (LV)+intraventricular septum (S)] ratio (i.e. right heart index) was calculated using right ventricle/left ventricle+septum (RV/LV+S). Measurements were obtained with Histolab software (Microvision Instruments, Evry, France).

eNOS [7] = test: Western blotting of eNOS in lung tissue after long-term hypoxia; format: in vivo, rat; details: hypoxia 21 days; compared to normoxia control
ROCK II [8] = test: Western blotting of ROCK II in lung tissue after long-term hypoxia; format: in vivo, rat; details: hypoxia 21 days; hypoxia 144.7±12.6%
sGCα1 [9] = test: Western blotting of sGCα1 in lung tissue after long-term hypoxia; format: in vivo, rat; details: hypoxia 21 days; compared to normoxia control
hypoxic rats [10] = test: Pulmonary artery wall thickness and muscularization (HE staining) after long-term hypoxia; format: in vivo, rat
Procedure: as §4

[11] = normoxia for 24 hrs, 10 μm, versus non-treated controls

## Cn1c(=O)c2c(ncn2CCN2CCN(c3ccccc3Cl)CC2)n(C)c1=O.O=C1O[C@H]([C@@H](O)CO)C(O)=C1O [SPAAX-1 ascorbate complex, 7-[2-[4-(2-chlorobenzene)piperazinyl]ethyl]-1,3-dimethylxanthine.ascorbic acid]
PDE5A
  PDE5A expression in lung tissue: 76.9±4.9%
eNOS [1]; hypoxia for 24 hrs, versus control level in normoxia, hypoxia 60±8.3%
  eNOS in isolated hypoxic pulmonary artery: 45±3.0%
eNOS [1]; isolated pulmonary artery, acute hypoxia
  eNOS in acute hypoxia: restored
eNOS [1]; [11]
  expression of eNOS in isolated pulmonary artery ring: 117.9±9.1%
[2]
  hypoxia-induced increase of dichlorofluorescein (ROS of lung tissues): reduced
ROCK II [3]; hypoxia for 24 hrs, versus control level in normoxia, hypoxia 180±10.2%
  expression of ROCK II in isolated hypoxic pulmonary artery: 140±9.0%
ROCK II [3]; [11]
  Expression of ROCK II in isolated pulmonary artery ring: 48.2±5.5%
sGCα1 [4]
  SGC-a in hypoxia: neither SPAAX-1 ascorbate complex nor Sildenafil ascorbate complex significantly affected
PKG
  PKG expression in lung tissue: 85.0±12.9%
VEGF
  VEGF in acute hypoxia: inhibited
Hypoxic rats [5]
  BW (body weight): 28.8 ± 7.9 g
Hypoxic rats [5]; normoxia 12.9 ± 0.9, hypoxia 26.5 ± 0.6
  MPAP (mean pulmonary arterial pressure): 16.9±1.1 mmHg
Hypoxic rats [6]; compared to the hypoxia state
  thickness of Right ventricular: reduced
Hypoxic rats [6]; hypoxia 21 days, relative to normoxia rats, hypoxia 184.6±0.7%
  right heart index, RV/(LV+S) weight ratio: 117.4±2.6%
eNOS [7]
  eNOS expression in lung tissue: 139.7±16.9%
ROCK II [8]
  ROCKII expression in lung tissue: 50.32±7.9%
sGCα1 [9]
  sGCα1 expression in lung tissue: 40.4±8.4%
Hypoxic rats [10]; hypoxia 21 days, 5 mg/kg/day
  Small pulmonary arterial morphology (<150 μm): highly improved
Hypoxic rats [10]; hypoxia 21 days, 5 mg/kg/day, hypoxia 165.8±5.4%
  hypoxia-induced pulmonary artery wall thickness: inhibited
Hypoxic rats [10]; hypoxic rats, versus vehicle only
  muscularizations of distal pulmonary artery (HE staining): significantly lower
